In one test the test system is R. solani. The test is described as follows: Pot assay, microbial drench treatments on Ozark soybean seedlings in pots infested with R. solani. Particulars: chemical control at 0.06 g/lb of soybean seeds. The class given is in vivo. The protocol:
In pot assays, WB or its dilutions were applied as a seed coating or as a a simulated in-furrow application in pots containing soil inoculated with the pathogen. Measurements of the percent of emergence, plant growth stage, and disease rating were used to assess biocontrol efficacy. Whole broth (WB) or WB dilutions were applied either as a simulated in-furrow treatment or a seed treatment applied to soybean seed. For simulated in-furrow application, 1 ml of biocontrol treatment or negative and positive controls was pipetted over the seed placed in 0.5 cm deep depressions made in peat-lite mix potting medium inoculated with the pathogen and prior to covering with the potting medium. Seed treatments were applied by coating soybean seed with the biocontrol and control treatments prior to planting into an inoculated potting medium. The negative control was reverse osmosis-purified (RO) water applied to seed in inoculated pots. The positive controls were Satori® (azoxystrobin) and Subtilex® (Bacillus subtilis strain MBI 600) applied at the labelled rates. In addition, a mock-inoculated treatment without pathogen inoculation was included in each test. Inoculation was done by thoroughly mixing 1 L of a slurry, made by blending two fully Rhizoctonia solani-colonized potato dextrose cultures in 200 ml RO water, with 4 L peat-lite mix (e.g., Sunshine LC1 potting mix) using a cement mixer. Experimental units were five seeds per pot and the treatments were arranged in a completely random design with four replicates. The tests were conducted on light carts illuminated with LED lamps (16 hour day/8 hour night) for 7-10 days at 26-28° C. The pots were irrigated as needed with RO water. Measurements of the percent emergence, plant growth stage (Munger, et al., 2008), and disease severity rating (0, no disease, to 5, dead plant) were collected from each plant at the end of each test, and the means of the experimental units were analyzed using JMP version 11 (SAS, Cary, NC).
In a separate pot assay, treatments were applied directly as a drench.

For the next test, the system named is Rhizoctonia. In words: Rhizoctonia control field trial, soybean seed treatment, Fisher, Indiana. Conditions: isolates (GB6-M) 20 μl WB/Seed; Fludioxonil 0.02 mg/Seed.
In another test the test system is Pythium irregulare. The test is described as follows: Pot assay, bacterial isolates with or without fungicide Satori for control of Pythium irregulare on soybean. The class given is in vivo. The protocol:
In order to test the performance of bacterial isolates, with or without the presence of the fungicide Satori® (active ingredient is azoxystrobin), samples were applied as simulated in-furrow by pipetting in 1 ml over each seed after the seeds were placed in a 1 cm deep depression. The combination was prepared by combining each bacterial whole broth (MS1479, MS2379, MS2414, or MS2820) (which was grown in GB6-M8) with an equal volume (1:1) of Satori®. The agar slurry inoculation method was used after blending two agar cultures of P. irregulare in 200 ml RO water and then mixed with 4 L of peat-lite mix in a cement mixer. Five soybean seeds (genotype WS2620) were sown in each pot with 1 ml treatment over each seed (in-furrow simulation). Then the pots were incubated at 16° C. for 1 week and then 23° C. for another week before evaluation. The disease severity scale: 1=80-100%, 2=60-79%, 3=40-59%, 4=20-39%, 5=1-19%, and 6=0% damaged roots. (Table 16).

Experimental for Rhizoctonia: For all treatments, the target concentration is 20 μl water/seed, which corresponds to 60 ml/460 g seeds. Sixty (60) ml liquid was added to every 460 g soybean seeds for a total of six times. Each time, 10 ml of liquid was added to the 460 g seeds and mixed for 15 seconds. Coated seeds were dried for 5-10 minutes under ventilation between the additions. Final coated seeds were dried overnight in a biocontainment hood.

In the case of `N#Cc1c[nH]cc1-c1cccc2c1OC(F)(F)O2` [Fludioxonil], the “Disease Rating” value with R. solani (0 = no disease to 5 = plant dead, 7 days) is 3.0^F. For the same molecule, in the test with R. solani (7 days after sowing, of four seeds per pot), the “# Emerged Plants” value is given as 2.0^B. Further, the “Plant Growth Stage” value in the test with R. solani (scale 1-4, 7 days) was 2.2^B. In the test on Rhizoctonia, the “Stand (No of plants per acre) at 11 DAP” value amounted to 2614 plants per acre, the “Stand (No of plants per acre) at 16 DAP” value stood at 20038 plants per acre, the “Stand (No of plants per acre) at 49 DAP” value is on record as 16939 plants per acre and the “Total # Diseased per plot (187.5 ft^2 per plot area)” value is reported as 7.3. In addition, the “Vigor Rating (1-5: 1 = worst, 5 = best)” value in the test with Rhizoctonia was 1.8.
As for `COCC(=O)N(c1c(C)cccc1C)C(C)C(=O)OC` (centres unmarked) [Metalaxyl], in the test on Pythium irregulare (five soybean seeds per pot, 1 ml treatment over each seed), the Plant development stood at 12.55. Moreover, in the test with Pythium irregulare (five soybean seeds per pot, 1 ml treatment over each seed, 16° C. 1 week then 23° C. 1 week), the Plant emergence worked out at 5. Also, in the test with Pythium irregulare (scale 1=80-100%, 2=60-79%, 3=40-59%, 4=20-39%, 5=1-19%, 6=0% damaged roots (higher = healthier)), the Disease severity came out at 4.35.
